In paper PMC10038264, “A new family of glutamate-gated chloride channels in parasitic sea louse Caligus rogercresseyi: A subunit refractory to activation by ivermectin is dominant in heteromeric assemblies” (PLOS Pathogens, 2023):
Where “and” joins values, the source holds several entries; their conditions need not be identical. Identical values can stand only once. Entries after “also recorded” stand apart in the source; their conditions may differ. Like-named read-outs stand apart in the source and are kept apart here.

Assays:
CrGluCl-B = assay: Two-electrode voltage-clamp of Xenopus oocytes expressing CrGluCl-B; type: cell-based, Caligus rogercresseyi; conditions: for activation by ivermectin (EC50 Ivermectin column): CrGluCl-B WT alone, 1-3 μM ivermectin
Procedure: Adult female Xenopus laevis frogs were anaesthetized by immersion in a1g/L solution tricaine (Ethyl 3-aminobenzoate methanesulfonate, Sigma) buffered to pH 7 with NaHCO3. Surgery was performed 30–40 min later, once the frog was completely anaesthetized judging by loss of reflexes. Ovarian lobes were removed through 1 cm abdominal incision and then kept at 16°C in Barth’s modified solution containing (in mM): 88 NaCl, 1 KCl, 0.4 CaCl2, 0.3 Ca (NO3)2, 0.8 MgSO4, 2.4 NaHCO3, 5 Hepes, 2.5 sodium pyruvate, 100 μg/ml gentamicin sulfate, 100 U/ml penicillin, 100 μg/ml streptomycin, 250 μg/ml amphotericin B, 0.22μm filtered and adjusted to pH 7.5 with Tris-Base. Osmolarity was brought to 220 mOsm with saccharose. The oocytes were manually defolliculated on the same day of extraction and the following day 20 ng cRNA in nuclease-free water was injected into stage V-VI oocytes using a FemtoJet microinjector (Eppendorf). Finally, the injected oocytes were stored in 96 well plates containing Barth’s modified solution and kept at 16°C until experiment day.
Current measurements at controlled membrane potentials (voltage-clamp experiments) were performed using two intracellular microelectrodes in defolliculated Xenopus oocytes previously microinjected with 20 ng of cRNA. Voltage-clamp recording was performed at room temperature using a TURBO TEC-10CX amplifier (npi electronic GmbH, Tamm, Germany) and PClamp 10.6 software (Axon Instruments, USA), 1 to 4 days after oocyte injection. The oocytes were recorded in a chamber (Model RC-1Z, Warner Instrumenst, USA) under continuous superfusion. […] Reference was an Ag-AgCl electrode connected to the bath via a 3 M KCl in 3% agar bridge. Currents were recorded continuously during the experiments without interruptions for solution changes. Oocytes were held at -30 mV and a voltage protocol consisting of a voltage drop to -100 mV for 25ms followed by a 360 ms ramp from -100 mV to 60mV applied with a period of 565 ms was continuously given. The signal filtered at 1 kHz was acquired with a Digidata 1440A Analog-to-Digital Converter and analyzed with Axon pClamp 10.6 software. The solution that bathed the oocytes during the electrophysiological recordings had the following composition (mM): 115 NaCl, 2 KCl, 1.8 CaCl2, 1 MgCl2, 10 HEPES pH 7.5 obtained with NaOH. For the low chloride solution, all the NaCl was replaced with the gluconate salt of Na. This decreases chloride concentration from 122.6 to 7.6 mM while increasing that of gluconate from 0 to 115 mM. The stock solutions of the drugs in dimethyl sulfoxide (DMSO) were: 10 mM emamectin, 10 mM ivermectin, 100 mM picrotoxin. These were diluted in bath solution to obtain final concentrations.
The currents were normalized according to the extrapolated maximum current delivered by the Hill adjustment. In this way, the concentration that generates 50% of the maximum effect (EC50) and the Hill coefficient (nH) for each situation were obtained.

CrGluCl-B Q327T mutant = assay: Voltage-clamp of oocytes expressing CrGluCl-B Q327T mutant; type: cell-based, Caligus rogercresseyi; conditions: 1 μM ivermectin, ANOVA P<0.05
Text: (§1) To identify putative GluCl subunits, we queried the NCBI Transcriptome Shotgun Assembly Sequence (TSA) Database for “glutamate-gated chloride channel Caligus”. The obtained sequences were translated and BLASTed (tBLASTn) against the C. rogercresseyi genome (WGS, BioProject ID 280098, NCBI) and against transcripts of L. salmonis database (https://licebase.org/). Primers for each of the putative new subunit found were designed to span the full length of the open reading frame (ORF) for each of them (B-E) (S1 Table, and arrows in Fig 1). Complete cDNAs were generated by RT-PCR from adult C. rogercresseyi samples from which putative full-length peptide sequences of CrGluCl-B, CrGluCl-C, CrGluCl-D and CrGluCl-E were obtained. Each PCR product was cloned in pGEM-T easy vector and sequenced. […]
(§2) Current measurements at controlled membrane potentials (voltage-clamp experiments) were performed using two intracellular microelectrodes in defolliculated Xenopus oocytes previously microinjected with 20 ng of cRNA. […] The oocytes were recorded in a chamber (Model RC-1Z, Warner Instrumenst, USA) under continuous superfusion. […] Currents were recorded continuously during the experiments without interruptions for solution changes. […] The signal filtered at 1 kHz was acquired with a Digidata 1440A Analog-to-Digital Converter and analyzed with Axon pClamp 10.6 software. […]

CrGluCl-B Q279E mutant = assay: Voltage-clamp of oocytes expressing CrGluCl-B Q279E mutant; type: cell-based, Caligus rogercresseyi; conditions: 1 μM ivermectin, one-sample t-test
Text: as §1, §2

[1] = test system: CrGluCl-B-Q279E-Y361F-Q327T triple mutant; assay: Voltage-clamp of oocytes expressing CrGluCl-B triple mutant; type: cell-based, Caligus rogercresseyi
Text: To identify putative GluCl subunits, we queried the NCBI Transcriptome Shotgun Assembly Sequence (TSA) Database for “glutamate-gated chloride channel Caligus”. The obtained sequences were translated and BLASTed (tBLASTn) against the C. rogercresseyi genome (WGS, BioProject ID 280098, NCBI) and against transcripts of L. salmonis database (https://licebase.org/). Primers for each of the putative new subunit found were designed to span the full length of the open reading frame (ORF) for each of them (B-E) (S1 Table, and arrows in Fig 1). Complete cDNAs were generated by RT-PCR from adult C. rogercresseyi samples from which putative full-length peptide sequences of CrGluCl-B, CrGluCl-C, CrGluCl-D and CrGluCl-E were obtained. Each PCR product was cloned in pGEM-T easy vector and sequenced. To express the clones in Xenopus laevis oocytes, ORF of CrGluCl-B, -C, -D and -E were cloned in pGH19 vector from pGEM-Teasy/CrGluCl using the following restriction enzymes: BamHI and XbaI (-B) and EcoRI (-D and -E). CrGluCl-C was cloned first in pCR3.1 vector with NotI and then into pGH19 with SpeI/XbaI. The CrGluCl/pGH19 plasmid were linearized with NheI (-A and -B) or XhoI (-C, -D, -E) and used as template for the synthesis of capped cRNA (complementary RNA) using the mMessage Machine T7 kit. Mutations were made by site-directed mutagenesis using the QuickChange method and confirmed by sequencing. […]
as §2

DmGluClα = test system: DmGluClα; design: method as in PMID 7935817, PMID 8702744, PMID 25994631; conditions: read-out: EC50 glutamate; cited from earlier work
HcGluClα = test system: HcGluClα; design: method as in PMID 7935817, PMID 8702744, PMID 25994631; conditions: read-out: EC50 glutamate; cited from earlier work

Row | Compound | current evoked by glutamate after ivermectin treatment (CrGluCl-B; 1 mM glutamate after 1 μM ivermectin, CrGluCl-B) | activation by ivermectin (EC50 Ivermectin column) (CrGluCl-B) | activation by ivermectin (EC50 Ivermectin column) (CrGluCl-B; listed as Ivermectin) | nH (ivermectin inhibition) (CrGluCl-B; CrGluCl-B, 3 mM glutamate) | IC50 (CrGluCl-B; CrGluCl-B, as restated in discussion, read-out: IC50 ivermectin inhibition of glutamate-activated current) | IC50 (CrGluCl-B; CrGluCl-B, continuous 3 mM glutamate, read-out: IC50 ivermectin antagonism of glutamate-elicited current) | effect of ivermectin on current compared with WT (CrGluCl-B Q327T mutant) | effect of ivermectin on current (CrGluCl-B Q279E mutant) | nH (ivermectin) [1] | EC50 ([1]; read-out: EC50 ivermectin) | EC50 (DmGluClα) | EC50 (HcGluClα) | EC50 ([1]; read-out: EC50 glutamate)
1 | ivermectin | 1.70 ± 1.69 μA | without effect | no effect; also recorded: Insensitive | -2.2 ± 0.5 and -2.2 | 0.34 µM | 0.342 ± 0.114 µM | significantly greater | small but significant effects | 1.6 ± 0.22 | 0.094 ± 0.054 µM |  |  | 
2 | N[C@@H](CCC(=O)O)C(=O)O [glutamate, L-glutamate] |  |  |  |  |  |  |  |  |  |  | 23 µM | 28 µM | 103 ± 133 µM
